Source: US8822754B2, “Ecdysone receptor-based inducible gene expression system” (Intrexon Corporation, priority 2000, dated 2014)

Tests used:
GAL4EcR + VP16USP = experiment: Transactivation of reporter genes through switch 1.2 in 293 cells; type: cell-based, Choristoneura fumiferana; conditions: switch 1.2 GAL4EcR + VP16USP, pGAL4RELuc
Procedure: This construct was prepared in the same way as in switch 1.1 above except MmRXRDEF was replaced with the D, E and F domains from spruce budworm USP (“CfUSPDEF”; SEQ ID NO: 58). The constructs used in this example are similar to those disclosed in U.S. Pat. No. 5,880,333 except that Choristoneura fumiferana USP rather than Drosophila melanogaster USP was utilized.
(§1) The same procedures described for CHO were followed for 293 cells except that the cells were plated in biocoated plates to avoid clumping.
(§2) Cells were harvested 24-48 hr after adding ligands. […] Twenty μl of lysate was assayed.

GAL4CfEcRVP16 [1] = experiment: Transactivation of reporter genes through switch 1.6 in CHO cells; type: cell-based, Choristoneura fumiferana; conditions: switch 1.6 GAL4CfEcRVP16, pGAL4RELuc
Procedure: (§3) This construct was prepared so that both the GAL4 DNABD and the VP16AD were placed on the same molecule. GAL4DNABD (SEQ ID NO: 41) and VP16AD (SEQ ID NO: 45) were fused to CfEcRDEF (SEQ ID NO: 3) at N- and C-termini respectively.
The cells were harvested and reporter activity was assayed.
as §2

CfVgRXR = experiment: Transactivation of reporter genes through switch 1.10 in CV1 cells; type: cell-based, Choristoneura fumiferana; conditions: switch 1.10 CfVgRXR, pIND(SP1)LacZ
Procedure: This example was prepared in the same way as switch 1.9 except MmRXR (SEQ ID NO: 53) was deleted.
(§4) The same procedures described for NIH3T3 cells were followed for CV1 cells
as §2

CfVgRXR + MmRXR = experiment: Transactivation of reporter genes through switch 1.9 in 293 cells; type: cell-based, Choristoneura fumiferana; conditions: switch 1.9 CfVgRXR + MmRXR, pIND(SP1)LacZ
Procedure: This example was prepared in the same way as switch 1.8 except DinEcR was replaced with a truncated CfEcR comprising a partial A/B domain and the complete CDEF domains [SEQ ID NO: 62 (polynucleotide) and SEQ ID NO: 63 (polypeptide)].
as §1, §2

GAL4CfEcRVP16 [2] = experiment: Transactivation of reporter genes through switch 1.6 in 3T3 cells; type: cell-based, Choristoneura fumiferana; conditions: switch 1.6 GAL4CfEcRVP16, pGAL4RELuc
Procedure: as §3
The cells were plated when they reached 50% confluency.
as §2

GAL4RXR + VP16CfEcR [3] = experiment: Transactivation of reporter genes through switch 1.3 in CV1 cells; type: cell-based, Choristoneura fumiferana; conditions: switch 1.3 GAL4RXR + VP16CfEcR, pGAL4RELuc
Procedure: as §4, §2

GAL4RXR + VP16CfEcR [4] = experiment: Transactivation of reporter genes through switch 1.3 in 3T3 cells
From the text: In various cellular backgrounds, including mammalian cells, insect ecdysone receptor (EcR) heterodimerizes with retinoid X receptor (RXR) and, upon binding of ligand, transactivates genes under the control of ecdysone response elements. Applicants constructed several EcR-based gene expression cassettes based on the spruce budworm Choristoneura fumiferana EcR (“CfEcR”; full length polynucleotide and amino acid sequences are set forth in SEQ ID NO: 49 and SEQ ID NO: 50, respectively), C. fumiferana ultraspiracle (“CfUSP”; full length polynucleotide and amino acid sequences are set forth in SEQ ID NO: 51 and SEQ ID NO: 52, respectively), and mouse Mus musculus RXRα (MmRXRα; full length polynucleotide and amino acid sequences are set forth in SEQ ID NO: 53 and SEQ ID NO: 54, respectively). The prepared receptor constructs comprise a ligand binding domain of EcR and of RXR or of USP; a DNA binding domain of GAL4 or of EcR; and an activation domain of VP16. The reporter constructs include a reporter gene, luciferase or LacZ, operably linked to a synthetic promoter construct that comprises either GAL4 or EcR/USP binding sites (response elements). Various combinations of these receptor and reporter constructs were cotransfected into CHO, NIH3T3, CV1 and 293 cells. […] Reporter gene expression activities were assayed at 24 hr or 48 hr after ligand addition.
MmRXRDEF (SEQ ID NO: 22) was fused to a GAL4DNABD (SEQ ID NO: 41) and CfEcRCDEF (SEQ ID NO: 1) was fused to a VP16AD (SEQ ED NO: 45).
The same procedures described for CHO cells were followed for 3T3 cells as well with two modifications. The cells were plated when they reached 50% confluency. 125,000 or 50,000 or 25,000 cells were plated per well of 6- or 12- or 24-well plates respectively. The GAl4EcR/VP16RXR and reporter vector DNAs were transfected into NIH3T3 cells, the transfected cells were grown in medium containing PonA, MurA, N-(2-ethyl-3-methoxybenzoyl)-N′-(3,5-dimethylbenzoyl)-N′-t-butylhydrazine, or N-(3,4-(1,2-ethylenedioxy)-2-methylbenzoyl)-N′-(3,5-dimethylbenzoyl)-N′-tert-butylhydrazine for 48 hr. The ligand treatments were performed as described in the CHO cell section above.
Cells were harvested 24-48 hr after adding ligands. 125, 250, or 500 μl of passive lysis buffer (part of Dual-luciferase™ reporter assay system from Promega Corporation) were added to each well of 24- or 12- or […] respectively. The plates were placed on a rotary shaker for 15 min. Twenty μl of lysate was assayed. Luciferase activity was measured using Dual-luciferase™ reporter assay system from Promega Corporation following the manufacturer's instructions. β-Galactosidase was measured using Galacto-Star™ assay kit from TROPIX following the manufacturer's instructions. All luciferase and β-galactosidase activities were normalized using Renilla luciferase as a standard. Fold activities were calculated by dividing normalized relative light units (“RLU”) in ligand treated cells with normalized RLU in DMSO treated cells (untreated control).

Compound: CCc1c(OC)cccc1C(=O)NN(C(=O)c1cc(C)cc(C)c1)C(C)(C)C [N-(2-ethyl-3-methoxybenzoyl)-N′-(3,5-dimethylbenzoyl)-N′-tert-butylhydrazine]
- Mean Fold Activation Through N-(2-ethyl-3-methoxybenzoyl)-N′-(3,5-dimethylbenzoyl)-N′-t-butylhydrazine (GAL4EcR + VP16USP): 2 fold
- Mean Fold Activation with 50 μM N-(2-ethyl-3-methoxybenzoyl)-N′-(3,5-dimethylbenzoyl)-N′-t-butylhydrazine (GAL4CfEcRVP16 [1]): 9 fold
- Mean Fold Activation Through N-(2-ethyl-3-methoxybenzoyl)-N′-(3,5-dimethylbenzoyl)-N′-t-butylhydrazine (CfVgRXR): 1 fold
- Mean Fold Activation Through N-(2-ethyl-3-methoxybenzoyl)-N′-(3,5-dimethylbenzoyl)-N′-t-butylhydrazine (CfVgRXR + MmRXR): 12 fold
- Mean Fold Activation Through N-(2-ethyl-3-methoxybenzoyl)-N′-(3,5-dimethylbenzoyl)-N′-t-butylhydrazine (GAL4CfEcRVP16 [2]): 7 fold
- Mean Fold Activation Through N-(2-ethyl-3-methoxybenzoyl)-N′-(3,5-dimethylbenzoyl)-N′-t-butylhydrazine (GAL4RXR + VP16CfEcR [3]): 25 fold
- Mean Fold Induction at 1.0 μM Concentration (GAL4RXR + VP16CfEcR [4]; GAL4MmRXRDEF/VP16CfEcRCDEF (switch 1.3), 1.0 μM ligand): 71 fold
- Mean Fold Activation Through N-(2-ethyl-3-methoxybenzoyl)-N′-(3,5-dimethylbenzoyl)-N′-t-butylhydrazine (GAL4RXR + VP16CfEcR [4]; switch 1.3 GAL4RXR + VP16CfEcR, pGAL4RELuc): 47 fold
